From US8415156B2, “Recombinant laminin-521” (Biolamina AB, priority 2010, dated 2013)

Experiments:
Oct4 and Nanog = assay: Real-time quantitative RT-PCR of pluripotency markers (Example 1); format: cell-based, human; settings: after several single cell dissociation passages
Protocol: Total RNA was isolated and cDNA was synthesized as described in Rodin et al., Nature Biotechnol., vol. 28, pp. 611-615 (2010). Real-time quantitative RT-PCR Taqman assays were performed using the Applied Biosystems 7300 Real-Time PCR System. All reactions were done in quadruplicate with predeveloped gene expression assay mix (Applied Biosystems) containing primers and a probe for the mRNA of interest. Additional reactions for each experiment included predeveloped gene expression assay mix for GAPDH, used to normalize the RNA input. All data were analyzed with 7300 System SDS Software version 1.4.

human ES cells = assay: Long-term culture with single cell dissociation passaging (Example 1); format: cell-based; settings: for proliferation rate compared with Matrigel / classical methods: single cell suspension passaging vs passaging in clumps
Protocol: (§1) Human ES cells were cultured on r-laminin-521-coated laboratory dishes in chemically defined O3 medium (described in Rodin et al., Nature Biotechnol., vol. 28, pp. 611-615 (2010)) at 37° C. in 5% CO2. Cells were routinely passed once every 10-12 days by exposure to Trypsin-EDTA solution (GIBCO Invitrogen) for 5 minutes at 37° C. They were then gently pipetted to break into single-cell suspension and defined trypsin inhibitor (GIBCO Invitrogen) was added. The cell suspension was centrifuged […], the supernatant discarded, the cell pellet resuspended in prewarmed O3 medium, and cells were then passed through a 40 μm sieve. After that cells were plated on new r-laminin-521-coated dishes at a concentration 30 Kcells/cm^2 (1:25-1:30 split ratio). Cells were fed once a day with fresh medium prewarmed in an incubator for 1 hour, except for the first day after a passage, when only a few drops of fresh medium were added. Control cells of the same line were cultured on Matrigel (BD Biosciences) in O3 medium as described in Rodin et al., Nature Biotechnol., vol. 28, pp. 611-615 (2010). Control cells were passaged in pieces.

[1] = test system: hES cell lines HS181 and H1; assay: Karyotyping; format: cell-based, human; settings: HS181 12 passages and H1 10 passages in O3; H1 7 passages in TeSR2
Protocol: Karyotyping of the cell lines was carried out using standard Q-banding techniques. Samples of cells were treated with colcemid KaryoMAX (0.1 μg/ml; Gibco Invitrogen Corporation) for up to 4 hours, followed by dissociation with Trypsin/EDTA solution (Gibco Invitrogen Corporation). The cells were pelleted via centrifugation and re-suspended in pre-warmed 0.0375 M KCl hypotonic solution and incubated for 10 minutes. Following centrifugation, the cells were resuspended in fixative (3:1 methanol:acetic acid). Metaphase spreads were prepared on glass microscope slides and G-banded by brief exposure to trypsin and stained with 4:1 Gurr's/Leishmann's stain (Sigma-Aldrich Co.). A minimum of 10 metaphase spreads were analyzed and additional 20 were counted.

HS181, HS401, H1 cells = assay: Long-term self-renewal of hES cells on LN-521 (Example 2); format: cell-based, human
Protocol: Human ES cells of HS181 and HS401 were cultured on LN-521-coated culture dishes in O3 medium (described in Rodin et al., Nature Biotechnol., vol. 28, pp. 611-615 (2010) with pH was adjusted to 7.35), mTeSR1 (STEMCELL Technologies) and chemically defined and xeno-free TeSR2 (STEMCELL Technologies) at 37° C., 5% CO2. Initially, cells of the lines were transferred onto a LN-521 coating from a human feeder cell layer by careful scratching using a sterile knife with subsequent trypsinization, or the cells were trypsinized into single cell suspension from a LN-511 coating. The cells were provided once a day with fresh medium pre-warmed in an incubator for one hour, except for the first day after plating, when only a few drops of fresh medium were added. Cells were routinely passed once in 10-12 days by exposure to Trypsin/EDTA (GIBCO Invitrogen Corporation, Paisley, Scotland) for 5 minutes at 37° C., 5% CO2. They were then gently pipetted to break into single-cell suspension and a Defined Trypsin Inhibitor (GIBCO Invitrogen) was added. The cell suspension was centrifuged at 25 rcf for 4 minutes, the supernatant was discarded, the cell pellet was resuspended in prewarmed O3 medium, and the cells were then passed through a 40 μm sieve. Subsequently, the cells were plated on new LN-521-coated dishes at a concentration of 30,000 cells/cm^2 in 1:25-1:30 split ratios. Control cells of the same line were cultured on Matrigel (STEMCELL Technologies) and LN-511 in O3 medium as described previously.^9
For defined and xeno-free cultures, TeSR2 (STEMCELL Technologies) medium and defined free from any animal derived component TrypLE™ Select (GIBCO Invitrogen Corporation, Paisley, Scotland) enzyme were used. The cells were passed every 10-14 days by exposure to TrypLE™ Select for 4-5 minutes at 37° C., 5% CO2. Then, the enzyme was carefully aspirated and prewarmed TeSR2 medium was added. After that, the cells were gently pipetted to break into single-cell suspension, centrifuged, the supernatant was discarded, and the cell pellet was resuspended in prewarmed TeSR2. The cells were then passed through a 40 μm sieve and plated on a fresh LN-521 coated dish.

OCT4 = assay: FACS analysis for Oct4; format: cell-based, human; settings: after several single cell suspension passages, O3 medium without additives
Protocol: OCT4 expression was analyzed as described in Ludwig, T. E. et al. Derivation of human embryonic stem cells in defined conditions. Nat. Biotechnol. 24, 185-187 (2006). Cells were run on FACSCalibur Flow Cytometer (Becton Dickinson). Data were analyzed with CellQuest software (Becton Dickinson).

HS181 cells = assay: Single cell survival / cell adhesion, 1 day after plating (Example 1); format: cell-based, human
Protocol: as §1
Ninety-six-well tissue cell culture plates were coated overnight at 4° C. with sterile solutions of the ECM proteins mouse LN-111 (Invitrogen), human recombinant LN-511, and human recombinant LN-521, all at a concentration of 30 μg/ml (5 μg/cm^2). For control cells, BD Matrigel™ hESC qualified (BD Biosciences) was used according to the manufacturer's instructions.
The assay was performed as described (Extracellular Matrix Protocols, 2000). Briefly, 96-well plates were coated by extracellular matrix proteins as described above and blocked by O3 medium containing bovine serum albumin. The ES cells were plated at a cell density of 600 cell/mm^2 upon extracellular matrix-coated plates and were left to adhere for either 1 hour or 1 day at the cell incubator. Non-adherent cells were washed away, and adherent cells were fixed for 20 min by 5% glutaraldehyde, stained by 0.1% Crystal Violet.

LN-521: protein formed by joining α5, β2 and γ1 chains together; human recombinant, produced in HEK293 cells
number of mRNA transcripts of Oct4 and Nanog compared with Matrigel (Oct4 and Nanog): higher numbers of transcripts | passages in single cell suspension giving the same number of cell divisions as cultures on Matrigel after 20 passages (human ES cells; 3 passages = 1 month, Matrigel passaged in pieces, 20 passages (3 months / 100 days)): 3 passages | passages with robust proliferation at a stable and high rate (human ES cells; single cell passaging every 10-12 days, 1:25 to 1:30 ratios, 3 months): at least 9 passages | proliferation rate compared with Matrigel / classical methods (human ES cells): much faster rate | proliferation rate compared with Matrigel / classical methods (human ES cells; listed as laminin-521): higher rate | karyotype [1]: normal | passages of proliferation, HS401 cells (HS181, HS401, H1 cells; O3 medium, 2 months): ≥ 5 passages | passages of proliferation, H1 cells (HS181, HS401, H1 cells; O3 medium, 6 months): ≥ 15 passages | passages of proliferation, HS181 cells (HS181, HS401, H1 cells; O3 medium, 9 months): at least 24 passages | passages cultured, HS401 cells (HS181, HS401, H1 cells; TeSR2, TrypLE Select, xeno-free, 1.5 months): 4 passages | passages cultured, H1 cells (HS181, HS401, H1 cells; TeSR2, TrypLE Select, xeno-free, 5 months): 12 passages | plating efficacy after a passage in TeSR2 compared with O3 or mTeSR1 media (HS181, HS401, H1 cells; TeSR2 medium and TrypLE Select): slightly lower | percentage of Oct4 positive (pluripotent) cells compared with Matrigel (OCT4): much higher percentage | adhesion at 1 day without additives compared with dishes including the ROCK inhibitor (HS181 cells; 1 day after plating): similar | adhesion at 1 day relative to Matrigel without additives (HS181 cells; 1 day after plating, without additives): 20 times | adhesion at 1 day without additives compared with dishes including the ROCK inhibitor (HS181 cells; 1 day after plating, listed as LN-532): no ROCK inhibitor is necessary | single cell survival / cells remaining attached 24 hours after plating (HS181 cells; O3 medium without any additives, completely dissociated HS181 cells): survived
